Reference: patent publication US5719291A, “Cyclohexane derivatives” (Hoffmann-La Roche Inc., priority 1991, dated 1998)
Converted amounts (≈) assume the structure as drawn. Counter-ions that a name gives are not always drawn. Like-named read-outs stand apart in the source and are kept apart here.

What was measured:
C. neoformans = assay: In vitro antifungal activity, IC80 (Method B); type: cell-based; settings: Cryptococcus neoformans
Experimental: (§1) The in vitro antifungal activities of the representative compounds of the present invention shown in Table 1 and Table 2 were measured by determining the minimal inhibitory concentrations (MIC: Method A) or 80% growth inhibition concentration (IC80 : Method B) respectively. MIC is defined as the concentration of an antifungal at which growth of fungi is not observed and IC80 is the concentration where cell turbidity measured at OD630 is reduced by 80%.
(§2) Antifungal activities were determined by either method A or B (see below) using microtest plates according NCCLS with minor modifications (Galgiani et at., Antimicrob. Agents Chemother. 33, 731 (1989)).
(§3) (Method B) The medium for yeast was buffered to pH 7.0 with 0.25% K2 HPO4 in Yeast Nitrogen Base (Difco Lab.). For the filamentous fungi, 0.2% of low melting point agar was supplemented to the above medium. Inoculum size was 1×10^4 cells/ml, and incubation was carried out for 1-2 days at 27° C. Fluconazole (Pfizer) was used as reference.

Candida albicans = assay: In vitro antifungal activity, IC80 (Method B); type: cell-based
Experimental: as §1, §2, §3

A. fumigatus = assay: In vitro antifungal activity, IC80 (Method B); type: cell-based; settings: Aspergillus fumigatus, read-out: Antifungal activity IC80
Experimental: as §1, §2, §3

[1] = Acute toxicity (LD50) by oral administration in mice; type: in vivo; settings: mouse, in vivo, read-out: LD50
[2] = pH 7, C. neoformans CY1057, 1×10^4 cells/ml, 1-2 days, 27° C., read-out: Antifungal activity IC80
[3] = pH 7, C. neoformans CY1059, 1×10^4 cells/ml, 1-2 days, 27° C., read-out: Antifungal activity IC80
[4] = pH 7, Candida albicans CY1002, 1×10^4 cells/ml, 1-2 days, 27° C., read-out: Antifungal activity IC80
[5] = pH 7, Candida albicans CY1005, 1×10^4 cells/ml, 1-2 days, 27° C., read-out: Antifungal activity IC80
[6] = pH 7, Candida albicans CY3003, 1×10^4 cells/ml, 1-2 days, 27° C., read-out: Antifungal activity IC80
[7] = A. fumigatus CF1003, 1×10^4 cells/ml, 1-2 days, 27° C., 0.2% agar
[8] = A. fumigatus CF1004, 1×10^4 cells/ml, 1-2 days, 27° C., 0.2% agar

Row | SMILES | IC80 (C. neoformans; [2]) [µg/mL] | IC80 (C. neoformans; [3]) [µg/mL] | IC80 (Candida albicans; [4]) [µg/mL] | IC80 (Candida albicans; [5]) [µg/mL] | IC80 (Candida albicans; [6]) [µg/mL] | IC80 (A. fumigatus; [7]) [µg/mL] | IC80 (A. fumigatus; [8]) [µg/mL] | LD50 [1] [mg/kg] | IC80 (C. neoformans; pH 7, read-out: Antifungal activity IC80, C. neoformans CY1057, 1×10^4 cells/ml, 1-2 days, 27° C.) [µg/mL] | IC80 (C. neoformans; pH 7, read-out: Antifungal activity IC80, C. neoformans CY1059, 1×10^4 cells/ml, 1-2 days, 27° C.) [µg/mL] | IC80 (Candida albicans; pH 7, read-out: Antifungal activity IC80, Candida albicans CY1002, 1×10^4 cells/ml, 1-2 days, 27° C.) [µg/mL] | IC80 (Candida albicans; pH 7, read-out: Antifungal activity IC80, Candida albicans CY1005, 1×10^4 cells/ml, 1-2 days, 27° C.) [µg/mL] | IC80 (Candida albicans; pH 7, read-out: Antifungal activity IC80, Candida albicans CY3003, 1×10^4 cells/ml, 1-2 days, 27° C.) [µg/mL] | IC80 (A. fumigatus) [µg/mL]
1 | CCCCCCCCO[C@@H]1CCC(C)(C)[C@H](OC)[C@H]1NC(=O)CN [Example 54, (1R,2S,3S)-2-[(aminoacetyl)amino-4,4-dimethyl-3-methoxy-1-octyloxycyclohexanetrifluoroacetic acid salt] | 46 | 47 | 18 | 12 | 18 | 150 | 140 |  |  |  |  |  |  | 
2 | CO[C@@H]1[C@@H](Cn2cncn2)[C@H](CCc2ccc(N(C)C)cc2)CCC1(C)C [Example 71] | 1.2 (≈ 3.24 µM) | 1.9 (≈ 5.13 µM) | 0.03 (≈ 0.081 µM) | 0.094 (≈ 0.254 µM) | 0.036 (≈ 0.0972 µM) | 32 (≈ 86.4 µM) | 37 (≈ 99.9 µM) |  |  |  |  |  |  | 
3 | CCc1ccc(CC[C@@H]2CCC(C)(C)[C@H](OC)[C@H]2Cn2cncn2)cc1 [Example 81, 1-[[(1R,2R,6R)-6-(4-ethylphenyl)ethyl-2-methoxy-3,3-dimethyl-cyclohexyl]methyl]-1H-1,2,4-triazole] | 1.5 (≈ 4.22 µM) | 1.5 (≈ 4.22 µM) | 0.0075 (≈ 0.0211 µM) | 0.025 (≈ 0.0703 µM) | 0.0042 (≈ 0.0118 µM) | > 200 | > 200 |  |  |  |  |  |  | 
4 | CO[C@@H]1[C@@H](Cn2cncn2)[C@H](CCc2ccc(N3CCCC3)cc2)CCC1(C)C [Example 82, 1-[[(1R,2R,6R)-2-methoxy-3,3-dimethyl-6-[2-(p-pyrrolidinophenyl)ethyl]cyclohexyl]methyl]-1H,1,2,4-triazole] | > 200 | > 200 | 0.15 (≈ 0.378 µM) | 0.35 (≈ 0.883 µM) | 0.17 (≈ 0.429 µM) | > 200 | > 200 |  |  |  |  |  |  | 
5 | CO[C@@H]1[C@@H](Cn2cncn2)[C@H](CCc2ccc3ccccc3n2)CCC1(C)C [Example 76, 1-[[(1R,2R,6S)-2-methoxy-3,3-dimethyl-6-(2-quinolin-2-ylethyl)cyclohexyl]methyl]-1H,1,2,4-triazole] | 10 (≈ 26.4 µM) | 30 (≈ 79.3 µM) | 0.38 (≈ 1 µM) | 0.77 (≈ 2.03 µM) | 0.36 (≈ 0.951 µM) | 30 (≈ 79.3 µM) | 36 (≈ 95.1 µM) |  |  |  |  |  |  | 
6 | CO[C@@H]1[C@@H](Cn2cncn2)[C@H](CCc2ccc(Cl)cc2)CCC1(C)C [Example 72, 1-[[(1R,2R,6R)-6-[2-(4-chlorophenyl)ethyl]-2-methoxy-3,3-dimethylcyclohexyl]methyl]-1H-1,2,4-triazole] | 1.3 (≈ 3.59 µM) | 4.8 (≈ 13.3 µM) | 0.095 (≈ 0.262 µM) | 0.094 (≈ 0.26 µM) | 0.06 (≈ 0.166 µM) | 14 (≈ 38.7 µM) | 12 (≈ 33.2 µM) |  |  |  |  |  |  | 
7 | CCCCCCCCO[C@@H]1CCC(C)(C)[C@H](OC)[C@@H]1Cn1cncn1 [Example 69, 1-[[(1R,2R,6R)-2-methoxy-3,3-dimethyl-6-octyloxycyclohexyl]methyl]-1H-1,2,4-triazole] |  |  |  |  |  |  |  | > 500 |  |  |  |  |  | 
8 | OC(Cn1cncn1)(Cn1cncn1)c1ccc(F)cc1F [FCZ, Fluconazole, reference compound] |  |  |  |  |  |  |  |  | 5.2 (≈ 17 µM) | 8.6 (≈ 28.1 µM) | 1.1 (≈ 3.59 µM) | 1.2 (≈ 3.92 µM) | 1 (≈ 3.27 µM) | 150 (≈ 490 µM)
